# Data published in paper PMC5075699.
# “And” between values parts separate entries of the source, which are not always exact repeats. Identical values can stand only once.
# Legend:
# nontransgenic (NTG) mice = test: Morris water maze #2, nontransgenic (NTG) mice; settings: for %Target Quadrant / Crossing Frequency / Latency to Target / Training Latency: ISRIB 2.5mpk in DMSO/PEG
# nontransgenic mice = test: Pilot Morris water maze #1 (spatial learning and memory); settings: for MWM training distance Trial*ISRIB (linear mixed effects regression model) / MWM training latency Trial*ISRIB (linear mixed effects regression model): vs vehicle; for MWM training latency Trial*ISRIB (linear mixed effects regression model): 6-7 month-old nontransgenic mice; for %Target Quadrant (percent time spent in target quadrant) / Crossing Frequency (number of platform crossings) / Latency to Target: individual mice; for Distance / Latency: ISRIB 0.1mpk, Fig 2A
# [1] = Fig 4E, NTG mice, individual mice
# [2] = Fig 4F, NTG mice, individual animals
# [3] = 0.1 mpk i.p. after each training trial
# [4] = 0.25 mpk i.p. after each training trial
# [5] = 24-hour probe trial (Fig 2B), 0.1mpk
# [6] = 24-hour probe trial (Fig 2B), 0.25mpk
# [7] = 72-hour probe trial (Fig 2C), 0.1mpk
# [8] = 72-hour probe trial (Fig 2C), 0.25mpk
smiles,measurement,setting,value
O=C(COc1ccc(Cl)cc1)NC1CCC(NC(=O)COc2ccc(Cl)cc2)CC1 (stereo not shown) [ISRIB],MWM training latency NTG Trial*ISRIB (linear mixed effects regression model),"nontransgenic (NTG) mice; 0.25 mpk in 1% DMSO/saline, vs vehicle",−0.1 sec/day
same,%Target Quadrant,nontransgenic (NTG) mice; [1],53.4979% and 33.8116% and 21.5771% and 31.9208% and 40.8186% and 33.2555% and 14.7926% and 38.7054% and 50.3837% and 29.8076% and 34.8126% and 37.4819%
same,Crossing Frequency,nontransgenic (NTG) mice; [1],7 and 3 and 0 and 4 and 2 and 1 and 6
same,Latency to Target,nontransgenic (NTG) mice; [1],12.9463 and 11.6116 and 60 and 7.741 and 3.4034 and 4.6046 and 17.8846 and 5.806 and 58.7921 and 9.409 and 18.6186
same,%Target Quadrant,"nontransgenic (NTG) mice; Fig 4F, NTG mice, individual mice",51.4959% and 27.4719% and 32.1433% and 20.02% and 23.9128% and 54.4989% and 37.8156% and 28.8066% and 47.6032% and 24.024% and 39.8176%
same,Crossing Frequency,nontransgenic (NTG) mice; [2],7 and 3 and 5 and 2 and 1
same,Latency to Target,nontransgenic (NTG) mice; [2],10.7441 and 4.6046 and 20.3537 and 7.474 and 3.27 and 20.1535 and 5.6056 and 21.1545 and 23.6904 and 21.4214 and 20.287 and 19.2859
same,Training Latency,"nontransgenic (NTG) mice; NTG mice, Trial 8, individual mice (Fig 4A-D)",2.936 and 11.4781 and 15.9493 and 10.5439 and 6.139 and 7.074 and 4.8048 and 33.3667 and 6.74 and 48.7821 and 3.871 and 75.7424
same,Training Latency,"nontransgenic (NTG) mice; NTG mice, Trial 9, individual mice (Fig 4A-D)",45.6457 and 6.273 and 8.742 and 30.297 and 12.6793 and 5.739 and 57.0571 and 4.8048 and 11.8118 and 7.341 and 70.1368 and 5.138
same,Training Latency,"nontransgenic (NTG) mice; NTG mice, Trial 10, individual mice (Fig 4A-D)",3.737 and 4.004 and 28.295 and 62.9963 and 3.67 and 21.6216 and 5.939 and 22.6226 and 8.542 and 19.4861 and 60 and 4.271
same,Training Latency,"nontransgenic (NTG) mice; NTG mice, Trial 11, individual mice (Fig 4A-D)",31.7651 and 42.1088 and 14.281 and 24.7581 and 7.074 and 6.54 and 24.024 and 52.7861 and 11.6116 and 20.7541 and 39.5062 and 3.6036
same,learning during the training trials,"nontransgenic (NTG) mice; NTG mice, 0.25 or 2.5 mpk",did not observe an improvement in learning
same,spatial memory treatment effects,"nontransgenic (NTG) mice; NTG mice, 72 hour probe trial, 0.25 or 2.5 mpk",did not observe significantly positive treatment effects
same,MWM training distance Trial*ISRIB (linear mixed effects regression model),nontransgenic mice; [3],-35 cm/day
same,MWM training latency Trial*ISRIB (linear mixed effects regression model),nontransgenic mice; [3],−1.2 sec/day
same,MWM training distance Trial*ISRIB (linear mixed effects regression model),nontransgenic mice; [4],-36 cm/day
same,MWM training latency Trial*ISRIB (linear mixed effects regression model),nontransgenic mice; [4],−0.9 sec/day
same,%Target Quadrant (percent time spent in target quadrant),nontransgenic mice; [5],44.0932% and 16.8608% and 27.6206% and 29.7282% and 34.8863% and 38.4914% and 18.802% and 29.5064% and 21.1869% and 54.6312% and 23.8491% and 29.5618% and 18.2474% and 16.6944%
same,Crossing Frequency (number of platform crossings),nontransgenic mice; [5],3 and 1 and 0 and 5 and 2
same,Latency to Target,nontransgenic mice; [5],15.4154 and 14.3143 and 9.776 and 14.281 and 10.9109 and 23.8572 and 8.075 and 28.4618 and 6.173 and 49.9833 and 54.0207 and 5.439
same,%Target Quadrant (percent time spent in target quadrant),nontransgenic mice; [6],41.7083% and 28.508% and 15.9179% and 23.35% and 35.33% and 30.3383% and 37.9922% and 36.7721% and 24.4038% and 36.5502% and 36.6057% and 35.6628% and 17.3045% and 11.2035% and 27.787%
same,Crossing Frequency (number of platform crossings),nontransgenic mice; [6],4 and 1 and 2 and 3 and 5
same,Latency to Target,nontransgenic mice; [6],12.5459 and 7.174 and 15.2486 and 19.2526 and 12.7795 and 12.9463 and 6.24 and 43.31 and 13.5135 and 13.6804 and 10.4438 and 8.842 and 6.84 and 29.0624 and 19.3861
same,%Target Quadrant (percent time spent in target quadrant),nontransgenic mice; [7],24.3483% and 20.0222% and 43.7604% and 8.4304% and 14.8641% and 36.883% and 28.6744% and 19.3012% and 32.6678% and 33.9434% and 13.6439% and 27.6206% and 18.9684% and 18.4692% and 26.345%
same,Latency to Target,nontransgenic mice; [7],47.2473 and 25.4922 and 4.571 and 12.4458 and 24.0908 and 40.0734 and 23.29 and 28.6286 and 42.042 and 38.3383 and 5.506 and 17.9513
same,%Target Quadrant (percent time spent in target quadrant),nontransgenic mice; [8],45.4798% and 27.066% and 23.0727% and 47.7537% and 35.4409% and 31.5031% and 40.9318% and 46.4781% and 25.5685% and 36.6057% and 27.898% and 43.3167% and 22.3516% and 17.7482% and 21.6861%
same,Latency to Target,nontransgenic mice; [8],9.843 and 17.3507 and 7.741 and 43.2432 and 4.972 and 20.1201 and 23.7237 and 4.638 and 6.24 and 11.4448 and 27.027 and 19.4194
same,latency to target and crossing frequency vs vehicle,"nontransgenic mice; 72-hour probe trial, one-way ANOVA",no significant improvement
same,Distance,"nontransgenic mice; Trial 1, individual mice",2362.83 and 2250.62 and 2496.09 and 1947.39 and 1168.96 and 2236.97 and 2411.54 and 2035.59 and 1921.1 and 2456.98 and 2337.83 and 2068.76 and 2366.51 and 2250.12 and 2342.92
same,Latency,"nontransgenic mice; Trial 1, individual mice",120.12 and 115.716 and 120.153 (11×) and 70.7374 and 112.312
same,Distance,"nontransgenic mice; Trial 2, individual mice",2488.72 and 412.271 and 2629.01 and 582.153 and 2113.12 and 2245.93 and 2084.31 and 208.443 and 322.031 and 2551.61 and 1958.47 and 2254.18 and 2157.45 and 1870.02 and 1903.66
same,Latency,"nontransgenic mice; Trial 2, individual mice",120.153 (7×) and 20.1868 and 53.2199 and 101.501 and 119.653 and 16.016 and 18.5852 and 101.535 and 100.467
same,Distance,"nontransgenic mice; Trial 3, individual mice",96.0203 and 1493.55 and 655.096 and 2193.26 and 428.034 and 2346.49 and 668.274 and 682.153 and 2384.94 and 600.87 and 1974.12 and 1289.33 and 2210.56 and 216.348 and 165.502
same,Latency,"nontransgenic mice; Trial 3, individual mice",7.307 and 72.6059 and 29.1291 and 120.153 (6×) and 25.7925 and 43.31 and 33.8338 and 32.666 and 11.8785 and 10.01
